# PubChem BioAssay AID2060335 (Molecular Pharmacology Branch, DTP, NCI, 2025)
# Tested on: DU-145 multicell spheroids with HUVEC/MSC, viability
# Assay: Anticancer human tumor DU-145 cell line growth inhibition [IpAb];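 also: spheroids exposed to agents for seven days before measurement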;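 as to viability, T/C: percent of DMSO vehicle control viability so 100% = untreated level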
# Conditions: for IC50: curve of first compound; for viability, T/C: stronger effect = lower value
# Outline: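 Spheroids of 60% malignant cells, 25% HUVEC and 15% MSC were exposed to targeted agents combined with ipatasertib or abemaciclib. Doses started at or near clinical Cmax (10 microM when unknown) and fell in half-log steps.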
# [1] = second compound 0.1 µM, first compound 0.0316 µM
# [2] = second compound 0.1 µM, first compound 0.1 µM
# [3] = second compound 0.1 µM, first compound 0.316 µM
# [4] = second compound 0.1 µM, first compound 1 µM
# [5] = second compound 0.1 µM, first compound 3.16 µM
# [6] = second compound 0.1 µM, first compound 10 µM
# [7] = second compound 0.316 µM, first compound 0.0316 µM
# [8] = second compound 0.316 µM, first compound 0.1 µM
# [9] = second compound 0.316 µM, first compound 0.316 µM
# [10] = second compound 0.316 µM, first compound 1 µM
# [11] = second compound 0.316 µM, first compound 3.16 µM
# [12] = second compound 0.316 µM, first compound 10 µM
# [13] = second compound 1 µM, first compound 0.0316 µM
# [14] = second compound 1 µM, first compound 0.1 µM
# [15] = second compound 1 µM, first compound 0.316 µM
# [16] = second compound 1 µM, first compound 1 µM
# [17] = second compound 1 µM, first compound 3.16 µM
# [18] = second compound 1 µM, first compound 10 µM
compound,measurement,setting,value
Cn1ncc(Cl)c1-c1cc(C(=O)NC(CN)Cc2cccc(F)c2)sc1Cl (stereo not given) + CC(C)NCC(C(=O)N1CCN(c2ncnc3c2C(C)CC3O)CC1)c1ccc(Cl)cc1,IC50,second compound 0.1 µM,142 nM
same,IC50,second compound 0.316 µM,< 31.6 nM
same,IC50,second compound 1 µM,< 31.6 nM
same,IC50,second compound 3.16 µM,< 31.6 nM
same,IC50,second compound 10 µM,< 31.6 nM
same,"viability, T/C",[1],72.8%
same,"viability, T/C",[2],56.3%
same,"viability, T/C",[3],35.3%
same,"viability, T/C",[4],24.7%
same,"viability, T/C",[5],17%
same,"viability, T/C",[6],0.42%
same,"viability, T/C",[7],46.1%
same,"viability, T/C",[8],41.2%
same,"viability, T/C",[9],33.6%
same,"viability, T/C",[10],24%
same,"viability, T/C",[11],16.4%
same,"viability, T/C",[12],1.33%
same,"viability, T/C",[13],30%
same,"viability, T/C",[14],32.6%
same,"viability, T/C",[15],28%
same,"viability, T/C",[16],24.2%
same,"viability, T/C",[17],15.8%
same,"viability, T/C",[18],0.93%
same,"viability, T/C","second compound 3.16 µM, first compound 0.0316 µM",22%
same,"viability, T/C","second compound 3.16 µM, first compound 0.1 µM",24.4%
same,"viability, T/C","second compound 3.16 µM, first compound 0.316 µM",21.7%
same,"viability, T/C","second compound 3.16 µM, first compound 1 µM",19.6%
same,"viability, T/C","second compound 3.16 µM, first compound 3.16 µM",18.7%
same,"viability, T/C","second compound 3.16 µM, first compound 10 µM",0.86%
same,"viability, T/C","second compound 10 µM, first compound 0.0316 µM",19.4%
same,"viability, T/C","second compound 10 µM, first compound 0.1 µM",19.7%
same,"viability, T/C","second compound 10 µM, first compound 0.316 µM",19.7%
same,"viability, T/C","second compound 10 µM, first compound 1 µM",18.5%
same,"viability, T/C","second compound 10 µM, first compound 3.16 µM",15.8%
same,"viability, T/C","second compound 10 µM, first compound 10 µM",0.27%
C=CCn1c(=O)c2cnc(Nc3ccc(N4CCN(C)CC4)cc3)nc2n1-c1cccc(C(C)(C)O)n1 + CCN1CCN(Cc2ccc(Nc3ncc(F)c(-c4cc(F)c5nc(C)n(C(C)C)c5c4)n3)nc2)CC1,IC50,second compound 0.01 µM,140 nM
same,IC50,second compound 0.0316 µM,88.3 nM
same,IC50,second compound 0.1 µM,64.3 nM
same,IC50,second compound 0.316 µM,55.9 nM
same,IC50,second compound 1 µM,96.6 nM
same,"viability, T/C","second compound 0.01 µM, first compound 0.0316 µM",85.5%
same,"viability, T/C","second compound 0.01 µM, first compound 0.1 µM",61.3%
same,"viability, T/C","second compound 0.01 µM, first compound 0.316 µM",21.9%
same,"viability, T/C","second compound 0.01 µM, first compound 1 µM",17%
same,"viability, T/C","second compound 0.01 µM, first compound 3.16 µM",10.1%
same,"viability, T/C","second compound 0.01 µM, first compound 10 µM",9.83%
same,"viability, T/C","second compound 0.0316 µM, first compound 0.0316 µM",75.3%
same,"viability, T/C","second compound 0.0316 µM, first compound 0.1 µM",47.6%
same,"viability, T/C","second compound 0.0316 µM, first compound 0.316 µM",21.7%
same,"viability, T/C","second compound 0.0316 µM, first compound 1 µM",16.9%
same,"viability, T/C","second compound 0.0316 µM, first compound 3.16 µM",10.7%
same,"viability, T/C","second compound 0.0316 µM, first compound 10 µM",8.6%
same,"viability, T/C",[1],69.7%
same,"viability, T/C",[2],37%
same,"viability, T/C",[3],21.9%
same,"viability, T/C",[4],16.1%
same,"viability, T/C",[5],9.64%
same,"viability, T/C",[6],9.46%
same,"viability, T/C",[7],58.7%
same,"viability, T/C",[8],40.9%
same,"viability, T/C",[9],25.2%
same,"viability, T/C",[10],14.9%
same,"viability, T/C",[11],9.9%
same,"viability, T/C",[12],10.9%
same,"viability, T/C",[13],57.3%
same,"viability, T/C",[14],50.5%
same,"viability, T/C",[15],27.1%
same,"viability, T/C",[16],14.2%
same,"viability, T/C",[17],7.82%
same,"viability, T/C",[18],8.53%
Cn1cnc2c(F)c(Nc3ccc(Br)cc3Cl)c(C(=O)NOCCO)cc21 + CCN1CCN(Cc2ccc(Nc3ncc(F)c(-c4cc(F)c5nc(C)n(C(C)C)c5c4)n3)nc2)CC1,IC50,second compound 0.01 µM,256 nM
same,IC50,second compound 0.0316 µM,213 nM
same,IC50,second compound 0.1 µM,145 nM
same,IC50,second compound 0.316 µM,184 nM
same,IC50,second compound 1 µM,82.4 nM
same,"viability, T/C","second compound 0.01 µM, first compound 0.00949 µM",80.8%
same,"viability, T/C","second compound 0.01 µM, first compound 0.03 µM",74.8%
same,"viability, T/C","second compound 0.01 µM, first compound 0.0949 µM",56.1%
same,"viability, T/C","second compound 0.01 µM, first compound 0.3 µM",50.7%
same,"viability, T/C","second compound 0.01 µM, first compound 0.949 µM",42.8%
same,"viability, T/C","second compound 0.01 µM, first compound 3 µM",38.6%
same,"viability, T/C","second compound 0.0316 µM, first compound 0.00949 µM",71%
same,"viability, T/C","second compound 0.0316 µM, first compound 0.03 µM",64.5%
same,"viability, T/C","second compound 0.0316 µM, first compound 0.0949 µM",53.5%
same,"viability, T/C","second compound 0.0316 µM, first compound 0.3 µM",46.7%
same,"viability, T/C","second compound 0.0316 µM, first compound 0.949 µM",44.5%
same,"viability, T/C","second compound 0.0316 µM, first compound 3 µM",34.4%
same,"viability, T/C","second compound 0.1 µM, first compound 0.00949 µM",67.4%
same,"viability, T/C","second compound 0.1 µM, first compound 0.03 µM",57.6%
same,"viability, T/C","second compound 0.1 µM, first compound 0.0949 µM",53.8%
same,"viability, T/C","second compound 0.1 µM, first compound 0.3 µM",46.3%
same,"viability, T/C","second compound 0.1 µM, first compound 0.949 µM",39.9%
same,"viability, T/C","second compound 0.1 µM, first compound 3 µM",37.1%
same,"viability, T/C","second compound 0.316 µM, first compound 0.00949 µM",61.5%
same,"viability, T/C","second compound 0.316 µM, first compound 0.03 µM",56.3%
same,"viability, T/C","second compound 0.316 µM, first compound 0.0949 µM",52.8%
same,"viability, T/C","second compound 0.316 µM, first compound 0.3 µM",45.9%
same,"viability, T/C","second compound 0.316 µM, first compound 0.949 µM",47.4%
same,"viability, T/C","second compound 0.316 µM, first compound 3 µM",39.2%
same,"viability, T/C","second compound 1 µM, first compound 0.00949 µM",58.1%
same,"viability, T/C","second compound 1 µM, first compound 0.03 µM",54.1%
same,"viability, T/C","second compound 1 µM, first compound 0.0949 µM",48.8%
same,"viability, T/C","second compound 1 µM, first compound 0.3 µM",44.4%
same,"viability, T/C","second compound 1 µM, first compound 0.949 µM",42.1%
same,"viability, T/C","second compound 1 µM, first compound 3 µM",35%
